Assays:
[1] = molecular target: human histamine 3 receptor (hH3R) (Homo sapiens (Human), UniProt Q9Y5N1); experiment: Binding affinity of human histamine 3 receptor (hH3R), [3H] labeled N-α-methylhistamine displacement; settings: hH3R-overexpressed cell membrane, [3H] N-α-methylhistamine
Outline: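 Membranes from cells overexpressing hH3R (15 μg) were incubated with compound and [3H]N-α-methylhistamine (20 μM stock) in 50 mM Tris-HCl pH 7.4, 5 mM MgCl2 for 30 min at 27 °C. Bound radioligand was counted by scintillation after filtration; 200 μM (R)(−)-α-methylhistamine stock defined non-specific binding; IC50 derived.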

[2] = molecular target: human serotonin 3 receptor (human 5-HT3 receptor) (Homo sapiens (Human), UniProt P46098); experiment: Binding affinity of human serotonin 3 receptor (performed at Cerep); settings: for inhibition at 10 µM: read-out: % inhibition degree at 10 μM, human serotonin 3 receptor (h5-HT3R); for IC50: read-out: Binding affinity (IC50) of human serotonin 3 receptor (h5-HT3R)
Sequence of human serotonin 3 receptor (human 5-HT3 receptor) (P46098 24-478): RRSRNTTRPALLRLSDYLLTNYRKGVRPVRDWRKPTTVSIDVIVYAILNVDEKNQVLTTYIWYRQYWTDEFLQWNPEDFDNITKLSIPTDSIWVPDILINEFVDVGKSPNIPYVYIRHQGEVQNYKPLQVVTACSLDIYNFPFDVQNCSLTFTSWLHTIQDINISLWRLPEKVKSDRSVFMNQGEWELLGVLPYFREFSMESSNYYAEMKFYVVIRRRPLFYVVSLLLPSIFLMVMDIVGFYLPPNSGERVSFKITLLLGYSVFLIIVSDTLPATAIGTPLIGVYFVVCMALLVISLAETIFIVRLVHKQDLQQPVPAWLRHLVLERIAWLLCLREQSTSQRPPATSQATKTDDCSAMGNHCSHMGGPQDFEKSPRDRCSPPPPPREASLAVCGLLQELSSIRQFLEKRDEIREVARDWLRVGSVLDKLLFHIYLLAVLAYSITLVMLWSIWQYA
Method: The binding assays of the human serotonin 3 receptor for present invention were performed at Cerep (Poitiers, France), and the results of analysis are shown in Table 3.

[3] = system: histamine-induced itching, ICR mice; experiment: Histamine-induced itching model in ICR mice; assay type: in vivo; settings: 50 mg/kg oral, histamine 300 nmol intradermal, 20 min count
Method: (§1) Female, ICR mice (8 weeks old) were purchased from OrientBio Co., Ltd. The animals were housed under conditions of controlled temperature (23±3° C.), humidity (50±5%) and lighting with food and water available ad libitum.
(§2) The hair was clipped using clippers (8000AD, THRIVE) over the rostral part of the back 24 hours before the experiment under anesthesia with isoflurane. Histamine (300 nmol) was dissolved in saline and a volume of 40 μL injected intradermally into the rostral part of the back. Mice were dosed with either vehicle (20% cyclodextrin in second distilled water) or the compound by orally administration. The Compound (50 mg/kg) dissolved in a vehicle (20% cyclodextrin in second distilled water) and administered orally at a volume of 10 mL/kg.
(§3) Mice (n=10 per group) were divided into 3 groups (normal group, control group and experimental group). The animals were randomized for similar body weight distribution. A vehicle or the compound was administered 20 minutes before injection of histamine or saline. Immediately after intradermal injection, the animals were returned to an acrylic cage (approximately 30×30×30 cm, access production) composed of four cells, to which they had been acclimated for at least 1 hour before the experiment, for observation of itch responses. A camera (Samsung, VLUUNV30) was positioned above the mice to record their response. Itch was measured by blinded counting of the number of scratching in the 20 min period immediately after the intradermal injection. A number of scratching was defined as 3 or more individual rapid scratch movements with the hind paws around the injection site (J. Allergy Clin. Immunol. 2007, 19(1), 176-183). All data were analyzed by using Excel and Prism, and all values are expressed as the mean±S.E.M. The inhibitory effect of compounds is shown as a percentage of the maximal response to histamine (100% control group).
Statistical analysis was analyzed using one-way ANOVA with Dunnett test. Values of p<0.05 were considered statistically significant.

[4] = system: compound 48/80-induced itching, ICR mice; experiment: Compound 48/80-induced itching model in ICR mice; assay type: in vivo; settings: 50 mg/kg oral, compound 48/80 100 μg intradermal, 20 min count
Method: as §1
as §2, with “Compound 48/80 (100 μg) were” for “Histamine (300 nmol) was”, “dosed by orally” for “dosed”
as §3, with “Mice (n=8-10 per group)” for “Mice (n=10 per group)”, “injection of compound 48/80 or saline.” for “injection of histamine or saline.”, “number of bouts in the” for “number of scratching in the”, “site (J. Pharmacol. Sci. 2006, 100, 285-288; European J. of Pharmacol. 2002, 448, 175-183). All data” for “site (J. Allergy Clin. Immunol. 2007, 19(1), 176-183). All data”, “control group). Statistical analysis was analyzed using one-way ANOVA with Dunnett test. Values of p<0.05 were considered statistically significant.” for “control group).”

[5] = Metabolic stability in mouse microsome; settings: mouse microsome 1 mg/mL, 5 μM compound, 1 mM NADPH
[6] = Rat pharmacokinetics (oral); assay type: in vivo; settings: plasma, 10 mg/kg, SD rat, 2 mg/mL solution at 5 mL/kg; for AUC(0-inf): read-out: Rat pharmacokinetics AUCinf; for half-life: read-out: Rat pharmacokinetics t1/2 (converted)
Method: The weight of each ICR mouse and SD rat was properly 20˜30 g and 200˜300 g, and dosage of the compound of the present invention was 10 mL/kg for mice and 5 mL/kg for rats, and administered orally using Zonde. Blood collection was performed at 0.25, 0.5, 1, 2, 4, 6, 8 and 24 hours by orbital venous blood collection using a capillary tube coated with an anticoagulant, and then plasma was isolated using a centrifuge and kept in a freezer.
Plasma collected from animals and standard concentration material were pretreated using solid-phase extraction, and concentration of the compound of the invention was determined using a liquid chromatography mass spectrometer (Agilent HPLC, API-3000).
According to the resulting concentration value, the pharmacokinetics parameter was found using WinNonlin (Version 6.2) and half-life (t1/2), maximum blood concentration (Cmax) and infinite area under the curve (AUCinf) are shown in Tables 6 and 7 below.

Sequence of human histamine 3 receptor (hH3R) (Q9Y5N1 whole entry): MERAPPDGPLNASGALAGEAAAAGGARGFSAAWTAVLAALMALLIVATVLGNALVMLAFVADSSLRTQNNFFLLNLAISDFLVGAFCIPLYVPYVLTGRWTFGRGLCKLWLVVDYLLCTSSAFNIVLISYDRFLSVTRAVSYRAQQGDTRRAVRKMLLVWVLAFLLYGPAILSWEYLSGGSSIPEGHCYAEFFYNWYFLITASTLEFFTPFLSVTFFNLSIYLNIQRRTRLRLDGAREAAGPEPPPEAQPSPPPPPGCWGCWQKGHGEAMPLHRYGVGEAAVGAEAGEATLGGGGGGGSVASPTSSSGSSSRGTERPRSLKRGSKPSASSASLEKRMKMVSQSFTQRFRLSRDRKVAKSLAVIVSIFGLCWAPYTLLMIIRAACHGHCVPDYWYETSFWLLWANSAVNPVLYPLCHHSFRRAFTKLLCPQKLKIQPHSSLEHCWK

Row | Structure (SMILES) | IC50 [1] | Metabolic stability (CLh. int), Mouse [5] | Cmax [6] | AUC(0-inf) [6] | half-life [6] | inhibition at 10 µM [2] | IC50 [2] | Number of scratching (% changes from control group) [3] | Number of scratching (% change from control group) [4]
1 | CNC1CN(c2nc3ncc(I)cc3n3cnnc23)C1 [Compound 48, 1-(8-Iodopyrido[2,3-e][1,2,4]triazolo[4,3-a]pyrazin-4-yl)-N-methylazetidin-3-amine] | > 100 µM | 5.31 mL/min/mg | – | – | – | 28% | > 10 µM | 67.3^1% | 30.3%
2 | CNC1CN(c2nc3ncc(Br)cc3n3nnnc23)C1 [Compound 95, 1-(8-Bromopyrido[2,3-e]tetrazolo[1,5-a]pyrazin-4-yl)-N-methylazetidin-3-amine] | > 100 µM | 18.10 mL/min/mg | – | – | – | 25% | > 10 µM | 98.2^1% | 93.6^1%
3 | CNC1CN(c2nc3ncc(Br)cc3n3cnnc23)C1 [Compound 24, 1-(8-Bromopyrido[2,3-e][1,2,4]triazolo[4,3-a]pyrazin-4-yl)-N-methylazetidin-3-amine] | > 100 µM | 3.05 mL/min/mg | 2420 ng/mL | 4510 ng·h/mL | 78 min | – | 9.1 µM | 93.6^1% | 47.9^1%

Second part, led by results:

Row | IC50 [1] | Metabolic stability (CLh. int), Mouse [5] | Cmax [6] | AUC(0-inf) [6] | half-life [6] | Structure (SMILES) | inhibition at 10 µM [2] | IC50 [2] | Number of scratching (% changes from control group) [3] | Number of scratching (% change from control group) [4]
4 | > 100 µM | 1.76 mL/min/mg | 2590 ng/mL | 4560 ng·h/mL | 62.4 min | CNC1CN(c2nc3ncc(Cl)cc3n3cnnc23)C1 [Compound 18, 1-(8-Chloropyrido[2,3-e][1,2,4]triazolo[4,3-a]pyrazin-4-yl)-N-methylazetidin-3-amine] | – | 2.9 µM | 84.3^1% | 50.9^1%
5 | > 100 µM | 6.90 mL/min/mg | 1330 ng/mL | 3110 ng·h/mL | 97.2 min | Clc1cnc2nc(N3CCNCC3)c3nncn3c2c1 [Compound 7, 8-Chloro-4-(piperazin-1-yl)pyrido[2,3-e][1,2,4]triazolo[4,3-a]pyrazine] | – | – | 61.2^1% | –
6 | 90 µM | 10.22 mL/min/mg | 1950 ng/mL | 7740 ng·h/mL | 113 min | CN1CCN(c2nc3ncc(Cl)cc3n3cnnc23)CC1 [Compound 4, 8-Chloro-4-(4-methylpiperazin-1-yl)pyrido[2,3-e][1,2,4]triazolo[4,3-a]pyrazine] | – | – | 94.3^1% | 49.6^1%

Reference: patent US9586959B2, “Substituted tricyclic heterocycles as histamine 4 receptor inhibitors” (C&C RESEARCH LABORATORIES, priority 2011, dated 2017)
